The text below walks through data of US5556744A, “Methods and compositions for diagnosing and treating certain HIV infected patients” (The Trustees of the University of Pennsylvania, priority 1994, dated 1996).

The subject of the test is maternal HIV+ sera (antibodies). The test is described as follows: RIA / ELISA binding of maternal HIV+ sera to gp120 and gp41 peptides (Example 3). Set-up: species or system human. The method in brief: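 Maternal sera, diluted 1:50 and 1:500, were bound overnight at 4°C to peptides immobilized at 10 μg/ml (pH 9.6 carbonate) and blocked with 1% BSA. Read-out was ¹²⁵I-labelled anti-human IgG counts or HRP-TMB OD450. Signal with peptide minus without was expressed relative to seronegative serum.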
(In general: In an ELISA, binding on a coated surface is turned into a signal by an enzyme label.)

The mark [1] stands for this setting: Serum No. 1, Non-Transmission Group.
[2] abbreviates: Serum No. 2, Non-Transmission Group.
[3] abbreviates: Serum No. 3, Non-Transmission Group.
Setting [4] is: Serum No. 4, Transmission Group.
Where [5] appears, read: Serum No. 5, Transmission Group.
Where [6] appears, read: Serum No. 6, Non-Transmission Group.
Where [7] appears, read: Serum No. 7, Non-Transmission Group.
The mark [8] stands for this setting: Serum No. 8, Non-Transmission Group.
[9] abbreviates: Serum No. 9, Non-Transmission Group.
[10] abbreviates: Serum No. 10, Transmission Group.
Setting [11] is: Serum No. 11, Non-Transmission Group.
Setting [12] is: Serum No. 12, Non-Transmission Group.
Where [13] appears, read: Serum No. 13, Transmission Group.
Setting [14] is: Serum No. 14, Transmission Group.
Setting [15] is: Serum No. 15, Transmission Group.
[16] abbreviates: Serum No. 16, Non-Transmission Group.
[17] abbreviates: Serum No. 17, Non-Transmission Group.
Where [18] appears, read: Serum No. 18, Non-Transmission Group.
Where [19] appears, read: Serum No. 19, Transmission Group.
The mark [20] stands for this setting: Serum No. 20, Non-Transmission Group.

Take KQFINMWQEVGKAMYAPP [Peptide B138]: the “Number of maternal sera binding to peptide” value (20 maternal sera) is “Seven”. For the same sequence, the “Binding of maternal HIV+ serum to peptide (sera/NHS ratio)” value (from here on “Binding … (sera/NHS ratio)”) was “+ (which value is between 2 to 3)” under setting [1]; “+ (which value is between 2 to 3)” under setting [2]; “- (specific OD450 or cpm of sera sample binding to peptide divided by the specific OD450 or cpm of NHS sample binding to peptide, which value is less than 2)” under setting [3]; “+ (which value is between 2 to 3)” under setting [4]; “+ (which value is between 2 to 3)” under setting [5]; “+ (which value is between 2 to 3)” under setting [6]. The “Binding … (sera/NHS ratio)” value is reported as “++ (which value is greater than 3)” under setting [7]; “++ (which value is greater than 3)” under setting [8]; “- (specific OD450 or cpm of sera sample binding to peptide divided by the specific OD450 or cpm of NHS sample binding to peptide, which value is less than 2)” under setting [9]; “- (specific OD450 or cpm of sera sample binding to peptide divided by the specific OD450 or cpm of NHS sample binding to peptide, which value is less than 2)” under setting [10]; “- (specific OD450 or cpm of sera sample binding to peptide divided by the specific OD450 or cpm of NHS sample binding to peptide, which value is less than 2)” under setting [11]; “- (specific OD450 or cpm of sera sample binding to peptide divided by the specific OD450 or cpm of NHS sample binding to peptide, which value is less than 2)” under setting [12]. The “Binding … (sera/NHS ratio)” value runs as follows: under setting [13], “- (specific OD450 or cpm of sera sample binding to peptide divided by the specific OD450 or cpm of NHS sample binding to peptide, which value is less than 2)”; under setting [14], “- (specific OD450 or cpm of sera sample binding to peptide divided by the specific OD450 or cpm of NHS sample binding to peptide, which value is less than 2)”; under setting [15], “- (specific OD450 or cpm of sera sample binding to peptide divided by the specific OD450 or cpm of NHS sample binding to peptide, which value is less than 2)”; under setting [16], “- (specific OD450 or cpm of sera sample binding to peptide divided by the specific OD450 or cpm of NHS sample binding to peptide, which value is less than 2)”; under setting [17], “- (specific OD450 or cpm of sera sample binding to peptide divided by the specific OD450 or cpm of NHS sample binding to peptide, which value is less than 2)”; under setting [18], “- (specific OD450 or cpm of sera sample binding to peptide divided by the specific OD450 or cpm of NHS sample binding to peptide, which value is less than 2)”. For the same sequence, the “Binding … (sera/NHS ratio)” value is “- (specific OD450 or cpm of sera sample binding to peptide divided by the specific OD450 or cpm of NHS sample binding to peptide, which value is less than 2)” under setting [19] and “- (specific OD450 or cpm of sera sample binding to peptide divided by the specific OD450 or cpm of NHS sample binding to peptide, which value is less than 2)” under setting [20]. Further, the “Number of binding maternal sera from the transmission group” value (vertical transmission group (7 sera)) is given as “two”.
As to PQEVVLVNVTGENFNM [Peptide 96], where the note is “Example 3”, the “Binding of maternal sera to peptide (in words)” value is “No binding”. The “Binding … (sera/NHS ratio)” value is given as “- (specific OD450 or cpm of sera sample binding to peptide divided by the specific OD450 or cpm of NHS sample binding to peptide, which value is less than 2)” under setting [1]; “- (specific OD450 or cpm of sera sample binding to peptide divided by the specific OD450 or cpm of NHS sample binding to peptide, which value is less than 2)” under setting [2]; “- (specific OD450 or cpm of sera sample binding to peptide divided by the specific OD450 or cpm of NHS sample binding to peptide, which value is less than 2)” under setting [3]; “- (specific OD450 or cpm of sera sample binding to peptide divided by the specific OD450 or cpm of NHS sample binding to peptide, which value is less than 2)” under setting [4]; “- (specific OD450 or cpm of sera sample binding to peptide divided by the specific OD450 or cpm of NHS sample binding to peptide, which value is less than 2)” under setting [5]; “- (specific OD450 or cpm of sera sample binding to peptide divided by the specific OD450 or cpm of NHS sample binding to peptide, which value is less than 2)” under setting [6]. Besides, the “Binding … (sera/NHS ratio)” value is, setting by setting: under setting [7], “- (specific OD450 or cpm of sera sample binding to peptide divided by the specific OD450 or cpm of NHS sample binding to peptide, which value is less than 2)”; under setting [8], “- (specific OD450 or cpm of sera sample binding to peptide divided by the specific OD450 or cpm of NHS sample binding to peptide, which value is less than 2)”; under setting [9], “- (specific OD450 or cpm of sera sample binding to peptide divided by the specific OD450 or cpm of NHS sample binding to peptide, which value is less than 2)”; under setting [10], “- (specific OD450 or cpm of sera sample binding to peptide divided by the specific OD450 or cpm of NHS sample binding to peptide, which value is less than 2)”; under setting [11], “- (specific OD450 or cpm of sera sample binding to peptide divided by the specific OD450 or cpm of NHS sample binding to peptide, which value is less than 2)”; under setting [12], “- (specific OD450 or cpm of sera sample binding to peptide divided by the specific OD450 or cpm of NHS sample binding to peptide, which value is less than 2)”. Moreover, the “Binding … (sera/NHS ratio)” value is, setting by setting: under setting [13], “- (specific OD450 or cpm of sera sample binding to peptide divided by the specific OD450 or cpm of NHS sample binding to peptide, which value is less than 2)”; under setting [14], “- (specific OD450 or cpm of sera sample binding to peptide divided by the specific OD450 or cpm of NHS sample binding to peptide, which value is less than 2)”; under setting [15], “- (specific OD450 or cpm of sera sample binding to peptide divided by the specific OD450 or cpm of NHS sample binding to peptide, which value is less than 2)”; under setting [16], “- (specific OD450 or cpm of sera sample binding to peptide divided by the specific OD450 or cpm of NHS sample binding to peptide, which value is less than 2)”; under setting [17], “- (specific OD450 or cpm of sera sample binding to peptide divided by the specific OD450 or cpm of NHS sample binding to peptide, which value is less than 2)”; under setting [18], “- (specific OD450 or cpm of sera sample binding to peptide divided by the specific OD450 or cpm of NHS sample binding to peptide, which value is less than 2)”. The “Binding … (sera/NHS ratio)” value is, setting by setting: under setting [19], “- (specific OD450 or cpm of sera sample binding to peptide divided by the specific OD450 or cpm of NHS sample binding to peptide, which value is less than 2)”; under setting [20], “- (specific OD450 or cpm of sera sample binding to peptide divided by the specific OD450 or cpm of NHS sample binding to peptide, which value is less than 2)”.
For the sequence TRKSIRIQRGPGRAF [Peptide 107], the “Percentage of sera samples demonstrating binding to peptide, non-transmitter” value (Non-transmitter group, n = 13) is on record as 100%. For the same sequence, the “Binding … (sera/NHS ratio)” value reads like this: under setting [1], “++ (which value is greater than 3)”; under setting [2], “++ (which value is greater than 3)”; under setting [3], “++ (which value is greater than 3)”; under setting [4], “++ (which value is greater than 3)”; under setting [5], “++ (which value is greater than 3)”; under setting [6], “++ (which value is greater than 3)”. The “Binding … (sera/NHS ratio)” value by setting is: under setting [7], “+ (which value is between 2 to 3)”; under setting [8], “++ (which value is greater than 3)”; under setting [9], “++ (which value is greater than 3)”; under setting [10], “+ (which value is between 2 to 3)”; under setting [11], “++ (which value is greater than 3)”; under setting [12], “++ (which value is greater than 3)”. The “Binding … (sera/NHS ratio)” value is recorded as “++ (which value is greater than 3)” under setting [13]; “++ (which value is greater than 3)” under setting [14]; “- (specific OD450 or cpm of sera sample binding to peptide divided by the specific OD450 or cpm of NHS sample binding to peptide, which value is less than 2)” under setting [15]; “++ (which value is greater than 3)” under setting [16]; “++ (which value is greater than 3)” under setting [17]; “++ (which value is greater than 3)” under setting [18]. For the same sequence, the “Binding … (sera/NHS ratio)” value under setting [19] is on record as “++ (which value is greater than 3)” and the “Binding … (sera/NHS ratio)” value under setting [20] was “++ (which value is greater than 3)”. In addition, for the setting “Transmitter / transmission group, n = 7”, the “Percentage of sera samples demonstrating binding to peptide, transmitter” value worked out at 85.7%. The “Percent of the maternal serum samples that bound to the peptide” value (all 20 samples) stood at 95%.
